Reference: US20260283922A1, “Particles of Hydrophobic-Chain-Modified Monosaccharides and Cyclodextrin” (PARIS SCIENCES ET LETTRES, priority 2023, published 2026)

Legend:
[1] = Solubility study of ML; type: physicochemical; conditions: without α-CD, before stirring
Method: The solubility study of ML was carried out in water, methanol and methanol/chloroform mixture 1/1 v/v. In 10 mL glass vials, 10 mg of ML were added to 500 μL of solvent and left under magnetic stirring at 300 rpm at 25° C.

[2] = Thermogravimetric analysis; type: physicochemical; conditions: α-CD value at 420° C.
Method: The thermal behavior of ML/α-CD at 5 mg·mL^−1 and 70 mg·mL^−1 respectively and uncomplexed α-CD were studied using thermogravimetric analysis (FIG. 14).

Structure (SMILES) | solubility of ML in water [1] | residual mass percentage [2]
CCCCCCCCCCCCCCCCCC(=O)NCCCO[C@H]1O[C@H](CO)[C@@H](O)[C@H](O)[C@@H]1O [ML, 3-octadecanoylamino-α-D mannopyranoside] | insoluble | 
OC[C@H]1O[C@@H]2O[C@H]3[C@H](O)[C@@H](O)[C@@H](O[C@H]4[C@H](O)[C@@H](O)[C@@H](O[C@H]5[C@H](O)[C@@H](O)[C@@H](O[C@H]6[C@H](O)[C@@H](O)[C@@H](O[C@H]7[C@H](O)[C@@H](O)[C@@H](O[C@H]1[C@H](O)[C@H]2O)O[C@@H]7CO)O[C@@H]6CO)O[C@@H]5CO)O[C@@H]4CO)O[C@@H]3CO [α-CD, alpha-cyclodextrin] |  | 0%
